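Assay format: 96-well plates, 48-hour exposure. Here, GI50 denotes the concentration required for 50% inhibition of growth.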 The source made the active and inactive calls. Cut-off read from the data, not from the text of the source: active = GI50 up to about 1.1 µM and inactive = higher.
How the values were obtained:
Assay in all cases: DTP human tumour cell line panel, 48 h
PC-3 = test system: PC-3
OVCAR-3 = test system: OVCAR-3
NCI-H522 = test system: NCI-H522
SF-268 = test system: SF-268
SK-MEL-2 = test system: SK-MEL-2
HCT-15 = test system: HCT-15
HT-29 = test system: HT-29
SF-295 = test system: SF-295
TK-10 = test system: TK-10
HCT-116 = test system: HCT-116
MDA-MB-435 = test system: MDA-MB-435
MCF7 = test system: MCF7
OVCAR-5 = test system: OVCAR-5
SF-539 = test system: SF-539
MOLT-4 = test system: MOLT-4
A549 = test system: A549
DU-145 = test system: DU-145
EKVX = test system: EKVX
T47D = test system: T47D

SMILES | GI50 (PC-3) | GI50 (OVCAR-3) | GI50 (NCI-H522) | GI50 (SF-268) | GI50 (SK-MEL-2) | GI50 (HCT-15) | GI50 (HT-29) | GI50 (SF-295) | GI50 (TK-10) | GI50 (HCT-116) | GI50 (MDA-MB-435) | GI50 (MCF7) | GI50 (OVCAR-5) | GI50 (SF-539) | GI50 (MOLT-4) | GI50 (A549) | GI50 (DU-145) | GI50 (EKVX) | GI50 (T47D)
CCc1cn(C2CC(CO)C(CO)S2)c(=O)[nH]c1=O (centres undefined) | > 100 µM (inactive) | > 100 µM (inactive) | > 100 µM (inactive) | > 100 µM (inactive) | > 100 µM (inactive) | > 100 µM | > 100 µM (inactive) | > 100 µM (inactive) | > 100 µM (inactive) | > 100 µM (inactive) | > 100 µM (inactive) | > 100 µM (inactive) | > 100 µM (inactive) | > 100 µM (inactive) | > 100 µM (inactive) | > 100 µM (inactive) | > 100 µM (inactive) | > 100 µM (inactive) | > 100 µM (inactive)
CC(C)(C)N1CSC(=S)N(Cc2ccco2)C1 | 3.35 µM (inactive) | 1.94 µM (inactive) | 3.27 µM (inactive) | 3.93 µM (inactive) | 3.55 µM (inactive) | 2.56 µM | 3.27 µM (inactive) | 15.8 µM (inactive) | 3.04 µM (inactive) | 3.81 µM (inactive) | 1.76 µM (inactive) | 0.52 µM (active) | 3.1 µM (inactive) | 0.708 µM (active) | 1.45 µM (inactive) | 5.4 µM (inactive) | 3.85 µM (inactive) | 14.4 µM (inactive) | 5.64 µM (inactive)
COc1ccc(C(=O)O[C@@H]2CCN3CC[C@H](C)[C@H]23)cc1 | > 100 µM (inactive) | > 100 µM (inactive) | > 100 µM (inactive) | > 100 µM (inactive) | > 100 µM (inactive) | > 100 µM | > 100 µM (inactive) | > 100 µM (inactive) | > 100 µM (inactive) | > 100 µM (inactive) | > 100 µM (inactive) | > 100 µM (inactive) | > 100 µM (inactive) | > 100 µM (inactive) | > 100 µM (inactive) | > 100 µM (inactive) | > 100 µM (inactive) | > 100 µM (inactive) | > 100 µM (inactive)
C[C@]12CCC3C4=C(CCC3C1CCC2=O)C(=O)[C@H]1O[C@H]1C4=O (some centres undefined) | 4.18 µM (inactive) | 1.46 µM (inactive) | 1.84 µM (inactive) | 2.31 µM (inactive) | 12.2 µM (inactive) | 1.36 µM | 1.36 µM (inactive) | 15.3 µM (inactive) | 3.35 µM (inactive) | 0.453 µM (active) | 11.8 µM (inactive) | 2.18 µM (inactive) | 3.77 µM (inactive) | 1.92 µM (inactive) | 0.785 µM (active) | 11 µM (inactive) | 3.12 µM (inactive) | 14.3 µM (inactive) | 0.61 µM (active)
CC1=CC(=O)N(n2c(Cc3ccccc3)n[nH]c2=O)C1=O | 93.5 µM (inactive) | > 100 µM (inactive) | > 100 µM (inactive) | > 100 µM (inactive) | > 100 µM (inactive) | > 100 µM | > 100 µM (inactive) | > 100 µM (inactive) | > 100 µM (inactive) | > 100 µM (inactive) | > 100 µM (inactive) | > 100 µM (inactive) | > 100 µM (inactive) | > 100 µM (inactive) | 33.9 µM (inactive) | > 100 µM (inactive) | > 100 µM (inactive) | > 100 µM (inactive) | 98.4 µM (inactive)
Cc1ccc(/N=N/C(=N/c2ccccc2)c2ccc(N(CCC#N)CCC#N)cc2)cc1 | 17.9 µM (inactive) | 20.1 µM (inactive) | 17.4 µM (inactive) | 40.3 µM (inactive) | 19.7 µM (inactive) | 44.8 µM | 30.9 µM (inactive) | 27.2 µM (inactive) | 27.2 µM (inactive) | 32.9 µM (inactive) | 38 µM (inactive) | 22.1 µM (inactive) | 54.2 µM (inactive) | 28.8 µM (inactive) | 43.7 µM (inactive) | 26.7 µM (inactive) | 36.6 µM (inactive) | 30.6 µM (inactive) | 23.7 µM (inactive)

From ChEMBL document CHEMBL1201862, “PubChem BioAssay data set” (2004)
